Several values for one entry are separate records, joined by “and”; a condition that tells them apart may be missing. Equal values may be shown once. Entries after “also recorded” stand apart in the source; their conditions may differ. Read-outs that look alike come from different tables or passages of the source.
What was measured:
L929 (mouse fibroblast) = test: Cytotoxicity assay (MTT), L929; format: cell-based; details: Mus musculus, L929, 120 h, read-out: IC50 L929
Experimental: (§1) The cytotoxicity assay was implemented in 96-well flat-bottom microtiter plates following a reported procedure.[21],[22],[33] The mammalian cell lines L929 (mouse fibroblast) and KB3.1 (human cervix carcinoma) were cultivated at 37 °C and 10% CO2 in Dulbecco’s modified minimum essential medium (DMEM, Life Technologies, Carlsbad, CA, USA) supplemented with 10% fetal bovine serum (FBS, Life Technologies). The microtiter plate was filled with 120 μL of suspended cells (50,000/mL), and 60 μL of a serial dilution of the test compound was added. After 5 days of incubation, growth inhibition (IC50) was determined by a colorimetric tetrazolium dye MTT assay.[34] The compounds were dissolved in MeOH (1 mg/mL), MeOH was used as negative control, and epothilone[35] (1 mg/mL) was used as positive control.

[1] = tested on: filamentous actin (F-actin) in U-2OS wild type (wt) cells; test: Actin disruption assay in U-2OS cells (phalloidin staining); format: cell-based, human; details: for effect on F-actin network, high dose 1 h: 5 x IC50 (L929), compared to control; for effect on actin and nuclei number, high dose 24 h: 5 x IC50, 24 h, differences between 1 and 24 h treatment
Experimental: For this, the human osteosarcoma cell line U-2OS was treated using concentrations estimated based on previously determined IC50 values in murine L929 fibroblasts (Table 1), referred to as low dose (1 × IC50), and a 5-fold concentration, referred to as high dose (5 × IC50). Reorganization of the F-actin network was also investigated upon high dose treatment, followed by washout and a 1 h recovery phase in fresh medium. The impact on F-actin network organization was visualized using fluorescently labeled phalloidin (Figure 2). […] In addition, the effects on F-actin structures observed upon high dose treatment of all compounds were fully reversible after a 1 h recovery time (Figure 2m–q).
The respective previously determined IC50 values in L929 were used to calculate the treatment concentration (1 × IC50: low dose; 5 × IC50: high dose).[37] DMSO was used as the vehicle control, corresponding to the highest compound volume used in the assay. Coverslips were coated with 25 μg/mL fibronectin (Roche, Mannheim, Germany) diluted 1:40 in phosphate buffered saline (PBS, pH 7.4, Life Technologies), and cells were seeded at a density of 20,000 cells and allowed to spread overnight. CO2-equilibrated culture medium was spiked with the desired compound and DMSO, respectively, in the above-mentioned concentration, and cells were treated with prepared medium for 1 h under cell culture conditions. For long-term experiments, the treatment phase was extended to 24 h. Cells were washed once and fixed afterward using 4% prewarmed paraformaldehyde (PFA) supplied in PBS for 20 min at 37 °C, followed by three additional washing steps with prewarmed PBS buffer. In addition, the reversibility of high dose effects on F-actin network organization was investigated by a washout procedure including three times prewarmed PBS wash steps prior to the addition of fresh medium and a recovery time of 1 h before fixation. In the case of 24 h treatments, the recovery phase was extended to 47 h. Cells were permeabilized with 0.1% Triton X-100 (Bio-Rad Laboratories, Hercules, CA, USA) in PBS buffer for 1 min at room temperature, washed three times with PBS, and stained for F-actin using ATTO-594-coupled phalloidin (ATTO-Tec, Siegen, Germany) diluted in PBS buffer (1:100) for 1 h at room temperature. Coverslips were washed thrice in PBS and mounted in ProLong Diamond antifade mountant (Invitrogen) containing DAPI to probe for nuclear DNA. Cells were recorded using an inverted microscope (Nikon Eclipse Ti2, Tokyo, Japan) equipped with a 60 times Nikon oil immersion objective (Plan Apofluar, 1.4 NA), a pE-4000 (CoolLED, Andover, UK) as light source, and a pco.edge back-illuminated sCMOS camera (Excelitas Technologies, Mississauga, ON, Canada). The microscopy system was operated by and images were recorded with NIS (Nikon) and processed with ImageJ (NIH, Bethesda, MD, USA).

[2] = molecular target: T1, actin (G-actin purified from rabbit skeletal muscle) (Oryctolagus cuniculus, UniProt P68135); test: Pyrene actin polymerization assay; format: biochemical; details: 2 μM compound, 2 μM actin (5% pyrene-actin), 550 nM actin seeds, after 30 min; control = 100%
T1 construct: 1.5 kg of fresh rabbit skeletal muscle was minced with a meat grinder; from tissue; host or cells: rabbit skeletal muscle (acetone powder)
Excerpt: To rule out that the reduced in cellulo efficacies of 3–5 could instead be explained by an altered membrane permeability of modified compounds or their differential effects on other intracellular factors, pyrene actin polymerization assays[23] were used to analyze potential effects on actin assembly in vitro under defined conditions. Globular actin (G-actin) was purified from rabbit skeletal muscle[24] and fluorescently labeled with pyrene (see description in the Supporting Information). G-actin (2 μM) supplemented with 5% pyrene-labeled actin was added to actin seeds and the respective compound (2 μM) in polymerization buffer to initiate the reaction. Actin polymerization was then assessed by reading out the increasing pyrene fluorescence signal over time (Figure 3).
Acetone powder and G-actin were prepared as described previously.[24] Briefly, 1.5 kg of fresh rabbit skeletal muscle was minced with a meat grinder. Subsequently, the meat was stirred for 15 min in 2.5 L of high-salt buffer (0.5 M KCl, 0.1 M K2HPO4, 2 mM benzamidine, pH 6.4) and then pelleted at 4000g for 10 min. The supernatant was discarded, and the pellet was extracted once more with high-salt buffer and then washed twice with ice-cold ddH2O adjusting the slurry with 1 M Na2CO3 to pH 8.3 until a slight swelling of the pellet became visible. The pellet was then resuspended in ice-cold acetone, stirred for 15 min, and then centrifuged for 10 min at 4000g. The supernatant was discarded, and the pellet was washed once more with acetone before the pellet was broken up and dried in small pieces on aluminum foil under a fume hood overnight. The dried acetone powder was stored at −80 °C for further use.
For purification of G-actin, 5 g of the acetone powder was extracted five times with 50 mL of G-buffer containing 2 mM Tris-HCl, pH 8.0, 0.2 mM CaCl2, 0.5 mM DTT, 0.2 mM Na2ATP, and 0.1 mg/mL NaN3. After each step, the solution was filtered through a fine gauze, yielding a total volume of 250 mL. Subsequently, the solution was centrifuged for 30 min at 20,000g at 4 °C. Actin in the supernatant was then polymerized by addition of 25 × polymerization buffer (250 mM Tris-HCl pH 8.0, 1250 mM KCl, 25 mM Na2ATP, 50 mM MgCl2 × 6 H2O) overnight. Subsequently, KCl was added to a final concentration of 750 mM, followed by centrifugation of the solution at 150,000g at 4 °C for 3 h. The F-actin pellet was then homogenized with 25 mL of G-actin buffer using a potter and then dialyzed against G-buffer. After a final centrifugation step at 150,000g at 4 °C for 3 h, G-actin was purified by size exclusion chromatography using a HiLoad 26/75 Superdex 200 column. Actin concentrations were determined by measuring the absorbance at 290 nm and using an extinction coefficient of 26,600 M^–1 cm^–1.
For pyrene labeling, 10–20 mL of G-actin solution were dialyzed against labeling buffer following the procedure described by Doolittle et al.[38] […]
Pyrene assays were conducted to assess the inhibitory properties of cytochalasins on actin polymerization under defined conditions in vitro using G-actin and actin seeds. The degree of labeling was determined; EC290 nm actin: 26600 1/M × cm; EC342 nm pyrene: 31091 1/M × cm. […]

[3] = tested on: glucose carrier in human erythrocytes; details: human erythrocytes ref 29, 30; cited from earlier work
[4] = tested on: human potassium channel hKv1.5; design: method as in PMID 15800051; details: cited from earlier work
[5] = tested on: KB3.1 (human cervix carcinoma); test: Cytotoxicity assay (MTT), KB3.1; format: cell-based; details: Homo sapiens, KB 3-1, 120 h, read-out: IC50 KB3.1
Experimental: as §1

[6] = 5 days of incubation, MTT, NC: no cytotoxic effect, or only weak inhibition of proliferation

Structure (SMILES)	IC50 (L929 (mouse fibroblast); [6])	effect on F-actin network, low dose ([1]; 1 x IC50 (L929), 1 h)	effect on F-actin network, high dose 1 h ([1]; 1 h)	effect on actin and nuclei number, high dose 24 h [1]	relative actin polymerization rate [2]	inhibition of glucose transport [3]	inhibitory activity on hKv1.5 [4]	IC50 (L929 (mouse fibroblast))	IC50 [5]
C=C1[C@@H](C)[C@H]2[C@H](Cc3ccccc3)NC(=O)[C@]23OC(=O)/C=C/[C@H](O)CCC[C@@H](C)C/C=C/[C@H]3[C@@H]1O [Compound 2, cytochalasin B]	1300 nM	partially led to compromised lamellipodia and a reduction of intermittent, cytoplasmic F-actin	complete collapse of the F-actin network; also recorded: actin disruption	+ multinucleation; also recorded: formation of multinucleated cells	45%	inhibits glucose transport	inhibitory activity		
C/C(=C\c1csc(C)n1)[C@@H]1C[C@@H]2O[C@]2(C)CCC[C@H](C)[C@H](O)[C@@H](C)C(=O)C(C)(C)[C@@H](O)CC(=O)O1 [Epothilone B, reference compound]								0.58 nM	0.095 nM
C=C1[C@@H](C)[C@H]2[C@H](Cc3ccccc3)N(C)C(=O)[C@]23OC(=O)/C=C/[C@H](O)CCC[C@@H](C)C/C=C/[C@H]3[C@@H]1O [Compound 4, N-methyl cytochalasin B]	> 10000 nM		only slight; also recorded: moderate effects	caused multinucleation, but left the actin network largely unchanged	83% and 84–86% and 84%				

— publication PMC11519904, “Comprehensive Cell Biological Investigation of Cytochalasin B Derivatives with Distinct Activities on the Actin Network” (Journal of Natural Products, 2024)
